This note sets out measurements from patent US9686992B2, “Pesticidal mixtures including spiroheterocyclic pyrrolidine diones” (Syngenta Participations AG, priority 2012, dated 2017).

Each structure is given as a SMILES string.

Test [1] concerns Myzus persicae (Green Peach Aphid). Briefly: Myzus persicae feeding/residual contact activity, preventive (sunflower leaf discs). It counts as in vivo. The following applies: single active ingredient, 6 DAT. From the text:
(§1) The action to be expected E for a given active ingredient combination obeys the so-called COLBY formula and can be calculated as follows (COLBY, S. R. “Calculating synergistic and antagonistic responses of herbicide combination”. Weeds, Vol. 15, pages 20-22; 1967):
(§2) ppm=milligrams of active ingredient (=a.i.) per liter of spray mixture
(§3) X=% action by active ingredient A) using p ppm of active ingredient
(§4) Y=% action by active ingredient B) using q ppm of active ingredient.
(§5) According to COLBY, the expected (additive) action of active ingredients A)+B) using p+q ppm of active ingredient is
(§6) If the action actually observed (0) is greater than the expected action (E), then the action of the combination is super-additive, i.e. there is a synergistic effect. In mathematical terms the synergism factor SF corresponds to O/E. In the agricultural practice an SF of ≧1.2 indicates significant improvement over the purely complementary addition of activities (expected activity), while an SF of ≦0.9 in the practical application routine signals a loss of activity compared to the expected activity.
Myzus persicae (Green Peach Aphid):
Feeding/Residual Contact Activity, Preventive
Sunflower leaf discs were placed on agar in a 24-well microtiter plate and sprayed with the DMSO test solutions of Mixtures (as provided by Table 45). After drying, the leaf discs were infested with an aphid population of mixed ages. After an incubation period of 6 DAT (days after treatment), samples were checked for mortality.

In test [2] the test system is Tetranychus urticae (Two-Spotted Spider Mite). Briefly: Tetranychus urticae feeding/contact activity, preventive (bean leaf discs). In kind it is in vivo. The conditions noted are these: single active ingredient, mobile stages.
Excerpt: as §1, §2, §3, §4, §5, §6
Tetranychus urticae (Two-Spotted Spider Mite): Feeding/Contact Activity, Preventive
Bean leaf discs on agar in 24-well microtiter plates were sprayed with the DMSO test solutions of certain Mixtures (as provided by Table 45). After drying, the leaf discs were infested with mite populations of mixed ages. 8 days later, discs were checked for mortality against mobile stages.

For the molecule `N#CCNC(=O)c1cnccc1C(F)(F)F` [Flonicamid], the “AVERAGE DEAD IN % AFTER 6 DAYS” value in test [1] (0.75 ppm AI) turned out to be 0%; in test [1] (1.5 ppm AI) it was 0%; in test [1] (3 ppm AI) it was 7.5%; in test [1] (6 ppm AI) it was 40%; in test [1] (12 ppm AI), 82.5%. Moreover, the “AVERAGE DEAD IN % AFTER 8 DAYS” value was found to be 0% in test [2] (50 ppm AI); 0% in test [2] (100 ppm AI); 0% in test [2] (200 ppm AI); 0% in test [2] (400 ppm AI); 12.5% in test [2] (800 ppm AI).
